Reference: patent publication US8735414B2 (priority 2009, dated 2014)

What was measured:
[1] = system: bicistronic HCV replicon (replicon RNA, GenBank Accession No. AJ242654); assay: HCV Replicon Assay; format: cell-based; conditions: Hepatitis C virus, 72 h, read-out: Replicon IC50

Structure (SMILES) | melting point | IC50 [1]
CCc1cc2c(cc1F)c(C(N)=O)c(-c1ccc(S(=O)(=O)N[C@@H](C)C(F)(F)F)cn1)n2-c1cnccn1 [compound 994, 6-ethyl-5-fluoro-1-(pyrazin-2-yl)-2-(5-{[(2S)-1,1,1-trifluoropropan-2-yl]sulfamoyl}pyridin-2-yl)-1H-indole-3-carboxamide] | 120 to 127 °C | < 500 nM
Cc1ccc2c(c1)c(C(N)=O)c(-c1ccc(S(=O)(=O)N[C@@H](C)C(F)(F)F)cn1)n2-c1cnccn1 [compound 916, 5-methyl-1-(pyrazin-2-yl)-2-(5-{[(2S)-1,1,1-trifluoropropan-2-yl]sulfamoyl}pyridin-2-yl)-1H-indole-3-carboxamide] | 240 to 245 °C | < 500 nM
Cc1ccc2c(C#N)c(-c3ccc(S(=O)(=O)N[C@H](C)C(F)(F)F)cn3)n(C3CCCC3)c2c1 [compound 214, 6-(3-cyano-1-cyclopentyl-6-methyl-1H-indol-2-yl)-N-[(2R)-1,1,1-trifluoropropan-2-yl]pyridine-3-sulfonamide] | 176 to 182 °C | < 500 nM
Cc1ccc2c(C#N)c(-c3ccc(S(=O)(=O)NC(C)(C)C(F)(F)F)cn3)n(C3CCCC3)c2c1 [compound 371, 6-(3-cyano-1-cyclopentyl-6-methyl-1H-indol-2-yl)-N-(1,1,1-trifluoro-2-methylpropan-2-yl)pyridine-3-sulfonamide] | 202 to 211 °C | < 500 nM
CCc1cc2c(cc1F)c(C(=O)O)c(-c1ccc(NS(=O)(=O)C(C)(C)C)cn1)n2C1CCCCC1 [compound 998, 2-{5-[(tert-butylsulfonyl)amino]pyridin-2-yl}-1-cyclohexyl-6-ethyl-5-fluoro-1H-indole-3-carboxylic acid] | 224 to 226 °C | 500 to 2000 nM
CC(C)NS(=O)(=O)c1cnc(-c2c(C#N)c3cc(Cl)ccc3n2C2CCCC2)nc1 [compound 314, 2-(5-chloro-3-cyano-1-cyclopentyl-1H-indol-2-yl)-N-(propan-2-yl)pyrimidine-5-sulfonamide] | 239 to 245 °C | < 500 nM
Cc1cc2c(cc1F)c(C#N)c(-c1ccc(S(=O)(=O)NC(C)(C)C)cn1)n2C1CCCC1 [compound 643, N-tert-butyl-6-(3-cyano-1-cyclopentyl-5-fluoro-6-methyl-1H-indol-2-yl)pyridine-3-sulfonamide] | 208 to 209 °C | < 500 nM
C[C@H](NS(=O)(=O)c1ccc(-c2c(C#N)c3ccc(F)cc3n2C2CCC2)nc1)C(F)(F)F [compound 395, 6-(3-cyano-1-cyclobutyl-6-fluoro-1H-indol-2-yl)-N-[(2S)-1,1,1-trifluoropropan-2-yl]pyridine-3-sulfonamide] | 171 to 172 °C | < 500 nM
CCn1c(-c2ccc(N(CCO)S(=O)(=O)C3CC3)nc2)c(C#N)c2ccc(OC(C)C)cc21 [compound 293, N-{5-[3-cyano-1-ethyl-6-(propan-2-yloxy)-1H-indol-2-yl]pyridin-2-yl}-N-(2-hydroxyethyl)cyclopropanesulfonamide] | 212 to 214 °C | 500 to 2000 nM
Cc1cc2c(cc1O)c(C#N)c(-c1ccc(S(=O)(=O)NC(C)(C)C)cn1)n2C1CCC1 [compound 805, N-tert-butyl-6-(3-cyano-1-cyclobutyl-5-hydroxy-6-methyl-1H-indol-2-yl)pyridine-3-sulfonamide] | 211 to 213 °C | 500 to 2000 nM
Cc1ccc2c(C#N)c(-c3ncc(S(=O)(=O)NC(CF)CF)cn3)n(C3CCC3)c2c1F [compound 557, 2-(3-cyano-1-cyclobutyl-7-fluoro-6-methyl-1H-indol-2-yl)-N-(1,3-difluoropropan-2-yl)pyrimidine-5-sulfonamide] | 191 to 198 °C | < 500 nM
C[C@H](NS(=O)(=O)c1ccc(-c2c(C#N)c3cc(OC(F)(F)F)ccc3n2-c2cnccn2)nc1)C(F)(F)F [compound 898, 6-[3-cyano-1-(pyrazin-2-yl)-5-(trifluoromethoxy)-1H-indol-2-yl]-N-[(2S)-1,1,1-trifluoropropan-2-yl]pyridine-3-sulfonamide] | 191 to 195 °C | 500 to 2000 nM
Cc1ccc2c(c1)c(C#N)c(-c1ncc(S(=O)(=O)N[C@@H](C)C(F)(F)F)cn1)n2C1CCC1 [compound 414, 2-(3-cyano-1-cyclobutyl-5-methyl-1H-indol-2-yl)-N-[(2S)-1,1,1-trifluoropropan-2-yl]pyrimidine-5-sulfonamide] | 190 to 195 °C | < 500 nM
C[C@@H](NS(=O)(=O)c1ccc(-c2c(C#N)c3cc(F)ccc3n2-c2ncccn2)nc1)C(F)(F)F [compound 673, 6-[3-cyano-5-fluoro-1-(pyrimidin-2-yl)-1H-indol-2-yl]-N-[(2R)-1,1,1-trifluoropropan-2-yl]pyridine-3-sulfonamide] | 202 to 205 °C | < 500 nM
C[C@H](NS(=O)(=O)c1ccc(-c2c(C#N)c3cc(F)c(C4CC4)cc3n2-c2ccc(F)cn2)nc1)C(F)(F)F [compound 818, 6-[3-cyano-6-cyclopropyl-5-fluoro-1-(5-fluoropyridin-2-yl)-1H-indol-2-yl]-N-[(2S)-1,1,1-trifluoropropan-2-yl]pyridine-3-sulfonamide] | 240 to 242 °C | < 500 nM
CC(C)NS(=O)(=O)c1cnc(-c2c(C(N)=O)c3ccc(OC(F)(F)F)cc3n2C2CCC2)nc1 [compound 781, 1-cyclobutyl-2-[5-(propan-2-ylsulfamoyl)pyrimidin-2-yl]-6-(trifluoromethoxy)-1H-indole-3-carboxamide] | 222 to 223 °C | < 500 nM
CCc1cc2c(cc1F)c(C#N)c(-c1ccc(S(=O)(=O)N[C@@H](C)C(F)(F)F)cn1)n2-c1ccncc1 [compound 974, 6-[3-cyano-6-ethyl-5-fluoro-1-(pyridin-4-yl)-1H-indol-2-yl]-N-[(2S)-1,1,1-trifluoropropan-2-yl]pyridine-3-sulfonamide] | 209 to 215 °C | < 500 nM
CC(C)(NS(=O)(=O)c1ccc(-c2c(C#N)c3c(F)cc(C4CC4)cc3n2-c2ncccn2)nc1)C(F)(F)F [compound 1098, 6-[3-cyano-6-cyclopropyl-4-fluoro-1-(pyrimidin-2-yl)-1H-indol-2-yl]-N-(1,1,1-trifluoro-2-methylpropan-2-yl)pyridine-3-sulfonamide] | 198 to 200 °C | 500 to 2000 nM
Cc1cc2c(C#N)c(-c3ccc(S(=O)(=O)N[C@@H](C)C(F)(F)F)cn3)n(C3CCC3)c2cc1OC(F)F [compound 660, 6-[3-cyano-1-cyclobutyl-6-(difluoromethoxy)-5-methyl-1H-indol-2-yl]-N-[(2S)-1,1,1-trifluoropropan-2-yl]pyridine-3-sulfonamide] | 168 to 170 °C | < 500 nM
Cc1ccc2c(c1)c(C#N)c(-c1ncc(S(=O)(=O)N[C@@H](C)C(F)(F)F)cn1)n2C1CCCC1 [compound 391, 2-(3-cyano-1-cyclopentyl-5-methyl-1H-indol-2-yl)-N-[(2S)-1,1,1-trifluoropropan-2-yl]pyrimidine-5-sulfonamide] | 180 to 185 °C | < 500 nM
Cc1ccc2c(c1)c(C#N)c(-c1ncc(S(=O)(=O)NC(C)C)cn1)n2C1CCC1 [compound 121, 2-(3-cyano-1-cyclobutyl-5-methyl-1H-indol-2-yl)-N-(propan-2-yl)pyrimidine-5-sulfonamide] | 134 to 138 °C | < 500 nM
Cc1cc2c(cc1F)c(C#N)c(-c1ccc(S(=O)(=O)N[C@@H](C)C(F)(F)F)cn1)n2-c1ccncc1 [compound 933, 6-[3-cyano-5-fluoro-6-methyl-1-(pyridin-4-yl)-1H-indol-2-yl]-N-[(2S)-1,1,1-trifluoropropan-2-yl]pyridine-3-sulfonamide] | 250 to 255 °C | < 500 nM
Cc1csc(-n2c(-c3ccc(S(=O)(=O)N[C@@H](C)C(F)(F)F)cn3)c(C#N)c3cc(F)c(C)cc32)n1 [compound 1038, 6-[3-cyano-5-fluoro-6-methyl-1-(4-methyl-1,3-thiazol-2-yl)-1H-indol-2-yl]-N-[(2S)-1,1,1-trifluoropropan-2-yl]pyridine-3-sulfonamide] | 206.3 to 211.7 °C | < 500 nM
C[C@H](NS(=O)(=O)c1ccc(-c2c(C#N)c3cc(F)ccc3n2CC2CC2)nc1)C(F)(F)F [compound 436, 6-[3-cyano-1-(cyclopropylmethyl)-5-fluoro-1H-indol-2-yl]-N-[(2S)-1,1,1-trifluoropropan-2-yl]pyridine-3-sulfonamide] | 165 to 167 °C | < 500 nM
CC(C)Oc1ccc2c(C#N)c(-c3ccc(NS(=O)(=O)C4CC4)cn3)n(CC3CC3)c2c1 [compound 280, N-{6-[3-cyano-1-(cyclopropylmethyl)-6-(propan-2-yloxy)-1H-indol-2-yl]pyridin-3-yl}cyclopropanesulfonamide] | 150 to 155 °C | 500 to 2000 nM
CC(C)NS(=O)(=O)c1cnc(-c2c(C(N)=O)c3ccc(OC(F)F)cc3n2C2CCCCC2)nc1 [compound 747, 1-cyclohexyl-6-(difluoromethoxy)-2-[5-(propan-2-ylsulfamoyl)pyrimidin-2-yl]-1H-indole-3-carboxamide] | 216 to 218 °C | < 500 nM
Cc1cc2c(cc1F)c(C#N)c(-c1ccc(S(=O)(=O)N[C@@H](C)C(F)(F)F)cn1)n2-c1ccc(C#N)cn1 [compound 743, 6-[3-cyano-1-(5-cyanopyridin-2-yl)-5-fluoro-6-methyl-1H-indol-2-yl]-N-[(2S)-1,1,1-trifluoropropan-2-yl]pyridine-3-sulfonamide] | 276 to 277 °C | < 500 nM
Cc1ccc2c(c1)c(C#N)c(-c1ccc(S(=O)(=O)NC(CF)CF)cn1)n2CC1CC1 [compound 373, 6-[3-cyano-1-(cyclopropylmethyl)-5-methyl-1H-indol-2-yl]-N-(1,3-difluoropropan-2-yl)pyridine-3-sulfonamide] | 186 to 188 °C | < 500 nM
